# Assay results: patent US12419853B2, “Nanoparticle pharmaceutical delivery system” (ADEIRA PHARMA, LLC, priority 2019, dated 2025)
# Tests used:
# [1] = system: OVCAR3 human ovarian carcinoma xenograft; experiment: OVCAR3 xenograft efficacy; format: in vivo; conditions: CB.17 SCID mice, 4 mg/kg weekly, four doses
# Method: In this three-arm study, a vehicle control was included, which consisted of the nanoparticle emulsion with no cisplatin. A positive control arm included a conventional formulation of free cisplatin dosed at 4 mg/kg. The test arm included the nanoparticle emulsion at a dose of 4 mg/kg.
# 60 female CB.17 SCID mice, aged 8 to 12 weeks, were implanted with 1 mm^3 OVCAR3 tumor fragments in the flank. When the tumors had grown to approximately 100-150 mm^3, pairs were matched by tumor size and treatment began. Dosing was carried out weekly on all three arms, for a total of four doses. Body weight and tumor size for each of the mice was taken every other day. No excess toxicity was noted, as evidenced by body weight and observed behavior of the mice. […] The negative control (labeled ‘vehicle’ in FIG. 6) served as a reference for tumor growth in the absence of cisplatin.
# [2] = Source text: In a fifth alternative example, formulation of a nanoparticle emulsion was attempted as described in example 1, except that no triacetin was used, just safflower oil as the lipid component. […] The maximum solubility was approximately 1000× less than in triacetin.
SMILES,effect on tumor growth [1],"maximum solubility in safflower oil, fold less than in triacetin [2]"
"N.N.[Cl][Pt][Cl] [free cisplatin, cisplatin]",significant reduction in tumor growth,–
CC(=O)O[C@H]1C(=O)[C@@]2(C)[C@H]([C@H](OC(=O)c3ccccc3)[C@]3(O)C[C@H](OC(=O)[C@H](O)[C@@H](NC(=O)c4ccccc4)c4ccccc4)C(C)=C1C3(C)C)[C@]1(OC(C)=O)CO[C@@H]1C[C@@H]2O [paclitaxel],–,approximately 1000 ×
